Experimental data published in paper PMC7562719, “Discovery of a CNS penetrant small molecule SMN2 splicing modulator with improved tolerability for spinal muscular atrophy” (Scientific Reports, 2020).
pIC50: −log10 of the molar value.

How the values were obtained:
[1] = target: T1, rat N type calcium channel (Rattus norvegicus, UniProt Q02294); assay: Eurofins selectivity panel: N type calcium channel; format: binding
T1 construct: purchased Eurofins Inc

[2] = general in vitro toxicity and ADME tests; details: solubility, PAMPA, MDR1, stability, CYP inhibition, CYP induction/PXR, hERG, cytotoxicity, umu, Ames, in vitro micronucleus test
[3] = pharmacokinetic study in adult wild type FVB mice, oral; format: in vivo; details: for Kp / Cmax / MRT / Tmax: male, mouse
Method: TEC-1 was administered at doses of 2, 6, and 20 mg/kg for oral (suspended in 0.5% methyl cellulose aqueous solution) to male FVB mice (aged 8 weeks, 3 mice per a time point). After 0.5–120 h administration, blood and brain samples were collected. Blood samples with heparin were centrifuged for plasma collection. Brain samples were homogenized in saline 20% (w/v). The samples were deproteinized with acetonitrile and following by centrifugation, and the supernatants were analyzed by LC/MS/MS to obtain TEC-1 concentrations of the plasma and brain.

[4] = pharmacokinetic study in neonatal/juvenile FVB mice, intraperitoneal; format: in vivo; details: for Kp / Cmax / MRT / Tmax: male, mouse, ip; for Kp: brain/plasma, read-out: Kp (AUC0–120h ratio)
Method: TEC-1 was intraperitoneally administered at doses of 0.2, 0.6, and 2 mg/kg (suspended in saline/0.9% NaCl solution) to male FVB mice (10 days old, 3 mice per a time point). After administration, brain samples and blood samples with heparinized capillary tubes from heart were collected. Blood samples were centrifuged to obtain the plasma fraction. Brain samples were homogenized in 20% (w/v) saline. The samples were deproteinized with acetonitrile followed by centrifugation and the supernatants were analyzed by LC/MS/MS to obtain TEC-1 concentrations of the plasma and brain.

SMNΔ7 mice = assay: murine model of SMA (SMNΔ7 mice): survival, body weight, righting reflex; format: in vivo, mouse; details: for SMA mice that survived / survivors at P65 / total mice: 20 mg/kg; for survivors at P65 / total mice: SMA mice
Method: A pair of heterozygous SMNΔ7 mice[28] (mSmn+/−, SMN2+/+, SMNΔ7+/+) were purchased from Jackson Laboratory (USA, stock number 005025). The homozygous SMNΔ7 mice (affected and referred to as “SMNΔ7 mice”; mSmn−/−, SMN2+/+, SMNΔ7+/+) was generated by cross-bleeding of heterozygous SMNΔ7 mice. All experiments were approved and monitored by the animal experiment committee of Gifu Pharmaceutical University and were performed after approval by the Bioethics and Biosafety Committee of Gifu Pharmaceutical University. All procedures relating to animal care and treatment confirmed to animal care guidelines issued by the National Institutes of Health.
SMNΔ7 mice were treated with 2, 6, and 20 mg/kg TEC-1 (succinate) once a day by intraperitoneal injection (TERUMO, Japan) from P2 to P23. TEC-1 was diluted in 0.9% NaCl (aqueous) for intraperitoneal injection. After P24, TEC-1 was administrated one a day orally using 0.4 × 0.7 mm feeding needle (Primetech Corporation, Japan). For oral administration, TEC-1 was diluted in distilled water (Otsuka Pharmaceutical Factory, Japan). Heterozygous mice received equal volumes of vehicle.
Survival and body weight were assessed daily. Righting reflex test[15] tests were performed […] at P6, 11 and 16. Righting time was defined as the time it took a pup to turn over to its front after being placed completely on its back (maximum 60 s). Dead individuals were set to 60 s.

[5] = brain, 2 mg/kg oral single, adult FVB mice
[6] = brain, 6 mg/kg oral single, adult FVB mice
[7] = brain, 20 mg/kg oral single, adult FVB mice
[8] = plasma, 2 mg/kg oral single, adult FVB mice
[9] = plasma, 6 mg/kg oral single, adult FVB mice
[10] = plasma, 20 mg/kg oral single, adult FVB mice
[11] = brain, 0.2 mg/kg i.p. single, juvenile FVB mice
[12] = brain, 0.6 mg/kg i.p. single, juvenile FVB mice
[13] = brain, 2 mg/kg i.p. single, juvenile FVB mice
[14] = plasma, 0.2 mg/kg i.p. single, juvenile FVB mice
[15] = plasma, 0.6 mg/kg i.p. single, juvenile FVB mice
[16] = plasma, 2 mg/kg i.p. single, juvenile FVB mice

T1 sequence (Q02294 whole entry): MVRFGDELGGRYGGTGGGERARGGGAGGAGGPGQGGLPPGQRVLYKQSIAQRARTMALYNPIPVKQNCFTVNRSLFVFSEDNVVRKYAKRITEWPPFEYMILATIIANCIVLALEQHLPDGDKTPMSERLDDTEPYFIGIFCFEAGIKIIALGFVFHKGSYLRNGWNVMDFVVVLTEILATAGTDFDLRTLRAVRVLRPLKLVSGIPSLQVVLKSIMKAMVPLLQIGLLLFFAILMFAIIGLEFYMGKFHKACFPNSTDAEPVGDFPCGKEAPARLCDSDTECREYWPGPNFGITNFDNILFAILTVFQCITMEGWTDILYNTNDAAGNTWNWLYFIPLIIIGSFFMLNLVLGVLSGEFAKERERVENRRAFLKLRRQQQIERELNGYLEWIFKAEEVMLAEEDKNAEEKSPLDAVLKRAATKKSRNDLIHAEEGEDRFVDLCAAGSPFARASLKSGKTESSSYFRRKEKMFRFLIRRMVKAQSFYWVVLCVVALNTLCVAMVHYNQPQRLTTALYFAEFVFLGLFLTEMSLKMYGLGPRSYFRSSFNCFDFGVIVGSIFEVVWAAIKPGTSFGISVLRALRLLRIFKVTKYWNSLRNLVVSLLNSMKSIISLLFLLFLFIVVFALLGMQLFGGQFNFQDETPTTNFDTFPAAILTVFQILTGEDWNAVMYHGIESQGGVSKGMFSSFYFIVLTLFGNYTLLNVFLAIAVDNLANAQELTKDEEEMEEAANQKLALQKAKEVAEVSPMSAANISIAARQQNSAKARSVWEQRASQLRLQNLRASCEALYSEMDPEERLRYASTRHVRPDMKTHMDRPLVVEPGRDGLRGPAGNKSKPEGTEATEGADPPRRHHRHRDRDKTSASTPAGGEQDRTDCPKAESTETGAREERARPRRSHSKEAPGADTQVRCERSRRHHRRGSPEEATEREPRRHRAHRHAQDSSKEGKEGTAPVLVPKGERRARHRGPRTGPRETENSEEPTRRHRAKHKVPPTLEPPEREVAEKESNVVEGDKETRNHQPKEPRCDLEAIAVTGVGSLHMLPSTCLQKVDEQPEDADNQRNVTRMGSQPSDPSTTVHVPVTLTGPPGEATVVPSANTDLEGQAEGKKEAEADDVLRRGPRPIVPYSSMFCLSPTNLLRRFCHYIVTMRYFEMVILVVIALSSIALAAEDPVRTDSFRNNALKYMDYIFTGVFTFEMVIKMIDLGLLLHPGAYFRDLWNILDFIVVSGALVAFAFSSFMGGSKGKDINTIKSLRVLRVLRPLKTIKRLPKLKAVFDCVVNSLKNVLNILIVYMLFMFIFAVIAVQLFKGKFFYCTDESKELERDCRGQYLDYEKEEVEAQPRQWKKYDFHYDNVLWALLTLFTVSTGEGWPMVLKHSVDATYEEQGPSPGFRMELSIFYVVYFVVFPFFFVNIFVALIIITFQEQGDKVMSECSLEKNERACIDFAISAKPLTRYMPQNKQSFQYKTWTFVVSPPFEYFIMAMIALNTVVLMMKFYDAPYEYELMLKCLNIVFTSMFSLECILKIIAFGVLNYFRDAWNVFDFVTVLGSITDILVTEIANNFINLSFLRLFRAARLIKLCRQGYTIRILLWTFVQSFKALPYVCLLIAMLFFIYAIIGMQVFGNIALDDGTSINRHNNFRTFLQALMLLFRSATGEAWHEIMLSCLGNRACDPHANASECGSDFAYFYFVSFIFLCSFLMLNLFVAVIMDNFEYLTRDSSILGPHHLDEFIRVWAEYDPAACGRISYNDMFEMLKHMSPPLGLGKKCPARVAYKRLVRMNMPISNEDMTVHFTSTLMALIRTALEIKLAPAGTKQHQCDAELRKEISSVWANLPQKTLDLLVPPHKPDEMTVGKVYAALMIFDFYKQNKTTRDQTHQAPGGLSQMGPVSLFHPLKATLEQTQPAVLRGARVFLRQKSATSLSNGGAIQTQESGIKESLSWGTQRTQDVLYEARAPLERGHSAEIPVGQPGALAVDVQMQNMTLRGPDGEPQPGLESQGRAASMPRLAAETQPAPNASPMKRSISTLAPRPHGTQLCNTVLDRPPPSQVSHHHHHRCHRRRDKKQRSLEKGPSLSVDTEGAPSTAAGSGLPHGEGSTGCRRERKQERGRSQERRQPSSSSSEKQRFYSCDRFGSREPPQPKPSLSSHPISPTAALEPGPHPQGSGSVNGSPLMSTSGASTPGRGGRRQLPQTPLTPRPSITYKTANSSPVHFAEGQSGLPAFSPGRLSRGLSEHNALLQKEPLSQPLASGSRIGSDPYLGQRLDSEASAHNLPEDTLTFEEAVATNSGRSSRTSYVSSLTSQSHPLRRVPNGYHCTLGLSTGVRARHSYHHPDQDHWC
T1 sequence (P54287 whole entry partner): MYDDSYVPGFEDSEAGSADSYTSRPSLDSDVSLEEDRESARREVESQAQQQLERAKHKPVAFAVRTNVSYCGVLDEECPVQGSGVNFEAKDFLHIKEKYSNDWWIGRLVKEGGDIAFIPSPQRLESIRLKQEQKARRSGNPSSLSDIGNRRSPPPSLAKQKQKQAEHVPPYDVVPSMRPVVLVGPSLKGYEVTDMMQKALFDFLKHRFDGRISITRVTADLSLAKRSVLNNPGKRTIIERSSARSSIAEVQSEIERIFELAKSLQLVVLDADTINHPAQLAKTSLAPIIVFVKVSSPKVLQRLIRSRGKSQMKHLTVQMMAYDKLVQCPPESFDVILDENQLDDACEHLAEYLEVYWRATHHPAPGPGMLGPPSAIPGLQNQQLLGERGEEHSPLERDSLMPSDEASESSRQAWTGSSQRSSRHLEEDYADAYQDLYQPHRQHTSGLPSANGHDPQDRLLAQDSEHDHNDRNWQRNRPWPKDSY
T1 sequence (P54290 25-944 partner limits assumed): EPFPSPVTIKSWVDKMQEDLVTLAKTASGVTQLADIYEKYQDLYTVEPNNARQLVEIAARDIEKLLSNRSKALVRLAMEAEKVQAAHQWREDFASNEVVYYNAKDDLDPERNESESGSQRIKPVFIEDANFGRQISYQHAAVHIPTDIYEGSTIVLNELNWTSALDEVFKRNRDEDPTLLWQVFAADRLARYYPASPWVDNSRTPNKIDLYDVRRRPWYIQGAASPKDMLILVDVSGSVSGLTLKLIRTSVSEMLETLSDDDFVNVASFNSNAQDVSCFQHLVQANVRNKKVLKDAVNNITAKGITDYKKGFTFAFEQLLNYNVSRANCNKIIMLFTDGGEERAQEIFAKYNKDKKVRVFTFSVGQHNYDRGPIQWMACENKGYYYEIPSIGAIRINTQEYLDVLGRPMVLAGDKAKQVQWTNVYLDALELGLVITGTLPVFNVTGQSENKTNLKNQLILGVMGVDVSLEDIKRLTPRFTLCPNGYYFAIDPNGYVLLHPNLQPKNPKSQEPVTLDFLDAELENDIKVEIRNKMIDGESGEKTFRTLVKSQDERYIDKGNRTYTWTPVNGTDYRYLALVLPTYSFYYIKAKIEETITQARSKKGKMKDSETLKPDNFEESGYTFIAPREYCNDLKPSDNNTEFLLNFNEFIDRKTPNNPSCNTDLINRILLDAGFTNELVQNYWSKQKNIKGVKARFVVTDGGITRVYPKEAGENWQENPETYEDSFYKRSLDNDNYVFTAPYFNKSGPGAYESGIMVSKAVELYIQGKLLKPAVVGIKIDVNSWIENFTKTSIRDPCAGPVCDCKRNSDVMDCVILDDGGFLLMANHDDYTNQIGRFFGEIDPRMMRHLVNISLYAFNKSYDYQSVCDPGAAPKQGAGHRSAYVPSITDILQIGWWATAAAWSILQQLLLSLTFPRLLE
T1 sequence (P54290 945-1091 partner limits assumed): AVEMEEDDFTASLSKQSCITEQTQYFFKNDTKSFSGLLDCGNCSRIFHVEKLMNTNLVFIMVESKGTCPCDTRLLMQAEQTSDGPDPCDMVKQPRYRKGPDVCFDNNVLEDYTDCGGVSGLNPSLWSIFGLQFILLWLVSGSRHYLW

SMILES: Cc1cn2nc(-c3nc4ccc(N5CCN(C)CC5)cc4c(=O)[nH]3)cc2c(C)n1 [TEC-1, 2-(4,6-dimethylpyrazolo[1,5-a]pyrazin-2-yl)-6-(4-methylpiperazin-1-yl)quinazolin-4(3H)-one]
- pIC50 [1]: 5.06
- general in vitro toxicity and ADME profile [2]: good profiles
- AUC0–24 h [3, 5]: 2234.1 ng･h/g
- AUC0–120 h [3, 5]: 2433.7 ng･h/g
- AUC0–24 h [3, 6]: 3956.7 ng･h/g
- AUC0–120 h [3, 6]: 8011.1 ng･h/g
- AUC0–24 h [3, 7]: 6322.1 ng･h/g
- AUC0–120 h [3, 7]: 29429.3 ng･h/g
- Kp ([3]; brain and plasma, other: intraperitoneal (juvenile) and oral (adult), juvenile (intraperitoneal) and adult (oral) FVB mice, read-out: Kp values (ratio of the compound in the brain and plasma)): > 1
- Kp ([3]; brain/plasma, 2 mg/kg oral single, adult FVB mice, read-out: Kp (AUC0–120h ratio)): 1.2
- Kp ([3]; brain/plasma, 6 mg/kg oral single, adult FVB mice, read-out: Kp (AUC0–120h ratio)): 1.2
- Kp ([3]; brain/plasma, 20 mg/kg oral single, adult FVB mice, read-out: Kp (AUC0–120h ratio)): 1.8
- Cmax [3, 5]: 168 ng/g
- MRT [3, 5]: 10.7 h
- Tmax [3, 5]: 1 h
- Cmax [3, 6]: 195 ng/g
- MRT [3, 6]: 29.5 h
- Tmax [3, 6]: 7 h
- Cmax [3, 7]: 360 ng/g
- MRT [3, 7]: 54.6 h
- Tmax [3, 7]: 32 h
- MRT [3, 8]: 10.7 h
- Tmax [3, 8]: 3 h
- Cmax ([3]; plasma, 2 mg/kg oral single, adult FVB mice, mean, n = 3): 136 ng/mL
- Cmax [3, 9]: 157 ng/mL
- MRT [3, 9]: 33.1 h
- Tmax [3, 9]: 3 h
- Cmax [3, 10]: 222 ng/mL
- MRT [3, 10]: 48.5 h
- Tmax [3, 10]: 16 h
- AUC0–24 h [3, 8]: 1906.7 ng･h/mL
- AUC0–120 h [3, 8]: 2095.9 ng･h/mL
- AUC0–24 h [3, 9]: 3100.3 ng･h/mL
- AUC0–120 h [3, 9]: 6647.9 ng･h/mL
- AUC0–24 h [3, 10]: 4950.5 ng･h/mL
- AUC0–120 h [3, 10]: 16350.5 ng･h/mL
- AUC0–24 h [4, 11]: 69.7 ng･h/g
- AUC0–120 h [4, 11]: 87.7 ng･h/g
- AUC0–24 h [4, 12]: 600.3 ng･h/g
- AUC0–120 h [4, 12]: 716.7 ng･h/g
- AUC0–24 h [4, 13]: 3547.9 ng･h/g
- AUC0–120 h [4, 13]: 8261.5 ng･h/g
- Kp ([4]; 0.2 mg/kg i.p. single, juvenile FVB mice): 5.8
- Kp ([4]; 0.6 mg/kg i.p. single, juvenile FVB mice): 4.8
- Kp ([4]; 2 mg/kg i.p. single, juvenile FVB mice): 4.5
- Cmax [4, 11]: 10.5 ng/g
- MRT [4, 11]: 11.2 h
- Tmax [4, 11]: 0.5 h
- Cmax [4, 12]: 63.2 ng/g
- MRT [4, 12]: 11.8 h
- Tmax [4, 12]: 1 h
- Cmax [4, 13]: 219 ng/g
- MRT [4, 13]: 35.8 h
- Tmax [4, 13]: 1 h
- Cmax ([4]; plasma, 0.2 mg/kg i.p. single, juvenile (10-day-old) FVB mice, n = 3, pool): 2.2 ng/mL
- MRT [4, 14]: 7.21 h
- Tmax [4, 14]: 0.5 h
- Cmax [4, 15]: 11.3 ng/mL
- MRT [4, 15]: 10.7 h
- Tmax [4, 15]: 0.5 h
- Cmax [4, 16]: 42 ng/mL
- MRT [4, 16]: 40.4 h
- Tmax [4, 16]: 3 h
- AUC0–24 h [4, 14]: 15.2 ng･h/mL
- AUC0–120 h [4, 14]: 15.2 ng･h/mL
- AUC0–24 h [4, 15]: 129.9 ng･h/mL
- AUC0–120 h [4, 15]: 149.1 ng･h/mL
- AUC0–24 h [4, 16]: 718.6 ng･h/mL
- AUC0–120 h [4, 16]: 1829.8 ng･h/mL
- righting reflex latency compared to vehicle-treated mice (SMNΔ7 mice; 2 mg/kg, P16): significantly shortened latency time
- SMA mice that survived (SMNΔ7 mice; administered intraperitoneally throughout): 66%
- SMA mice that survived (SMNΔ7 mice; oral administration after weaning): 40%
- body mass compared to vehicle-treated SMNΔ7 mice (SMNΔ7 mice; 2, 6, 20 mg/kg once a day): increased body mass
- survival compared with vehicle-treated SMNΔ7 mice (SMNΔ7 mice; 2, 6, 20 mg/kg once a day, Kaplan–Meier to P65): enhanced the survival
- survivors at P65 / total mice (SMNΔ7 mice; 20 mg/kg once daily (i.p. P2-P23, then p.o.)): 4 of 10
- survivors at P65 / total mice (SMNΔ7 mice; 20 mg/kg once daily (i.p.-i.p.), TEC-1 succinate): 2 of 3
- survival until weaning (SMNΔ7 mice; all SMA model mice, 20 mg/kg intraperitoneally): survived until weaning
